Literature values in US20100081719A1 (priority 2006, published 2010).

Experiments:
[1] = test system: subjects suffering from fibromyalgia syndrome; settings: cited from earlier work; for Subjects with significant clinical improvement: after one month; for Difference from placebo: at three months
patients with FMS = settings: open-label; 11 completing patients; cited from earlier work

Row | Compound | Subjects with significant clinical improvement [1] | Difference from placebo [1] | Completing patients with a positive response (50% or greater improvement in two different measurements of overall pain) (patients with FMS) | Completing patients with insomnia requiring adjunctive medical therapy (patients with FMS)
1 | CN(C)CCC=C1c2ccccc2C=Cc2ccccc21 [cyclobenzaprine] | 12% | no difference |  | 
2 | COc1ccc(C(CN(C)C)C2(O)CCCCC2)cc1 (stereo not drawn) [venlafaxine] |  |  | Six of 11 | 3 of 11
3 | CN(C)CCC=C1c2ccccc2CCc2ccccc21 [amitriptyline] | 21% | no difference |  | 
